Test results reported in patent publication US10307425B2, “Compositions and methods for treating toxoplasmosis, cryptosporidiosis and other apicomplexan protozoan related diseases” (UNIVERSITY OF WASHINGTON, priority 2015, dated 2019).

target: TgCDPK1 (Toxoplasma gondii, UniProt Q9BJF5); test: biochemical
Sequence (Q9BJF5 1-507): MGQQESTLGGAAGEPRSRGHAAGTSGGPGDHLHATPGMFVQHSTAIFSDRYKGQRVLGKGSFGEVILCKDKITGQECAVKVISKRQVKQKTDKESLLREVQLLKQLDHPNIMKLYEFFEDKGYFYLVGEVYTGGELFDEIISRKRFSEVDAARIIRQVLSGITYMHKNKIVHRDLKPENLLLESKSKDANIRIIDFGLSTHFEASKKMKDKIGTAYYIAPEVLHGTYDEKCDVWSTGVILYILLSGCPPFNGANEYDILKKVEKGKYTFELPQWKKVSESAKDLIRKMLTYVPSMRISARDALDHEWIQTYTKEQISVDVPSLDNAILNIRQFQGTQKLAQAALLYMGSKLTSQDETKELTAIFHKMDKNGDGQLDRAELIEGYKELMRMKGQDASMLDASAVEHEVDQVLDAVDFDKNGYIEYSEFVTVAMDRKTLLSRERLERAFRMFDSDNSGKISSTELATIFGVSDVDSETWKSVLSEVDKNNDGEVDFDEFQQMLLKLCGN

`CCOc1ccc2cc(-c3nn(CC4(O)CNC4)c4ncnc(N)c34)ccc2n1` [Example 93, 3-((4-amino-3-(2-ethoxyquinolin-6-yl)-1H-pyrazolo[3,4-d]pyrimidin-1-yl)methyl)azetidin-3-ol] and `Nc1ncnc2c1c(-c1ccc3nc(OC4CC4)ccc3c1)nn2CC1(O)CNC1` [Example 101, 3-((4-amino-3-(2-cyclopropoxyquinolin-6-yl)-1H-pyrazolo[3,4-d]pyrimidin-1-yl)methyl)azetidin-3-ol] are within 1.5-fold of each other in IC50: 2.9 nM for the first, 3 nM for the second.

Going from `Nc1ncnc2c1c(-c1ccc3cc(OC(F)F)ccc3c1)nn2CC1CCNCC1` [Example 94, 3-(6-(difluoromethoxy)naphthalen-2-yl)-1-(piperidin-4-ylmethyl)-1H-pyrazolo[3,4-d]pyrimidin-4-amine] to `CN1CCC(Cn2nc(-c3ccc4cc(OC(F)F)ccc4c3)c3c(N)ncnc32)CC1` [Example 95, 3-(6-(difluoromethoxy)naphthalen-2-yl)-1-((1-methylpiperidin-4-yl)methyl)-1H-pyrazolo[3,4-d]pyrimidin-4-amine], the IC50 rises from 1.9 nM to 6.5 nM (3.4-fold). The first is the more potent here.

Going from `CCOc1ccc2cc(-c3nn(CC4(O)CNC4)c4ncnc(N)c34)ccc2c1` [Example 96, 3-((4-amino-3-(6-ethoxynaphthalen-2-yl)-1H-pyrazolo[3,4-d]pyrimidin-1-yl)methyl)azetidin-3-ol] to `CCOc1ccc2cc(-c3nn(CC4(O)CN(C)C4)c4ncnc(N)c34)ccc2c1` [Example 97, 3-((4-amino-3-(6-ethoxynaphthalen-2-yl)-1H-pyrazolo[3,4-d]pyrimidin-1-yl)methyl)-1-methylazetidin-3-ol], the IC50 falls from 7.8 nM to 2.6 nM (3-fold). The second is the more potent here.

First: Nc1ncnc2c1c(-c1ccc3cc(OC(F)F)ccc3c1)nn2CC1(O)CCNCC1 [Example 98, 4-((4-amino-3-(6-(difluoromethoxy)naphthalen-2-yl)-1H-pyrazolo[3,4-d]pyrimidin-1-yl)methyl)piperidin-4-ol]
Second: N#CC1(Cn2nc(-c3ccc4cc(OC(F)F)ccc4c3)c3c(N)ncnc32)CCNCC1 [Example 100, 4-((4-amino-3-(6-(difluoromethoxy)naphthalen-2-yl)-1H-pyrazolo[3,4-d]pyrimidin-1-yl)methyl)piperidine-4-carbonitrile]
The IC50 of the first is 3-fold higher: 7.5 nM for the first, 2.5 nM for the second. The second is the more potent here.

Compared with `CN1CCC(O)(Cn2nc(-c3ccc4cc(OC(F)F)ccc4c3)c3c(N)ncnc32)CC1` [Example 99, 4-((4-amino-3-(6-(difluoromethoxy)naphthalen-2-yl)-1H-pyrazolo[3,4-d]pyrimidin-1-yl)methyl)-1-methylpiperidin-4-ol], `CN1CCC(C#N)(Cn2nc(-c3ccc4cc(OC(F)F)ccc4c3)c3c(N)ncnc32)CC1` [Example 102, 4-((4-amino-3-(6-(difluoromethoxy)naphthalen-2-yl)-1H-pyrazolo[3,4-d]pyrimidin-1-yl)methyl)-1-methylpiperidine-4-carbonitrile] is 2-fold lower in IC50: 35.8 nM for the first, 18.2 nM for the second.

Going from `CN1CC(O)(Cn2nc(-c3ccc4nc(OC5CC5)ccc4c3)c3c(N)ncnc32)C1` [Example 103, 3-((4-amino-3-(2-cyclopropoxyquinolin-6-yl)-1H-pyrazolo[3,4-d]pyrimidin-1-yl)methyl)-1-methylazetidin-3-ol] to `CCOc1ccc2cc(-c3nn(C(C)C)c4ncnc(N)c34)ccc2n1` [Example 106, 3-(2-ethoxyquinolin-6-yl)-1-isopropyl-1H-pyrazolo[3,4-d]pyrimidin-4-amine], the IC50 falls from 4.8 nM to 2 nM (2.4-fold).

Going from `CCOc1ccc2cc(-c3nc(CC4CCNCC4)n4ccnc(N)c34)ccc2c1` [Example 114, 1-(6-ethoxynaphthalen-2-yl)-3-(piperidin-4-ylmethyl)imidazo[1,5-a]pyrazin-8-amine] to `CCOc1ccc2cc(-c3nc(CC4CCN(C)CC4)n4ccnc(N)c34)ccc2c1` [Example 115, 1-(6-ethoxynaphthalen-2-yl)-3-((1-methylpiperidin-4-yl)methyl)imidazo[1,5-a]pyrazin-8-amine], the IC50 rises from 10 nM to 18.6 nM (1.9-fold).

`CC(C)n1nc(-c2ccc3cc(OC4COC4)ccc3c2)c2c(N)ncnc21` [Example 116, 1-isopropyl-3-(6-(oxetan-3-yloxy)naphthalen-2-yl)-1H-pyrazolo[3,4-d]pyrimidin-4-amine] was tested, and the IC50 was 6.1 nM.
